Data: ChEMBL document CHEMBL4831556, “Discovery of a Novel Potent and Selective Calcium Release-Activated Calcium Channel Inhibitor: 2,6-Difluoro-N-(2'-methyl-3'-(4-methyl-5-oxo-4,5-dihydro-1,3,4-oxadiazol-2-yl)-[1,1'-biphenyl]-4-yl)benzamide. Structure-Activity Relationship and Preclinical Characterization” (J Med Chem, 2021)
pIC50: −log10 of the molar value. Each block holds one compound with its values, some of them ahead of it.

How the values were obtained:
[1] = Inhibition of SOCE in rat RBL-2H3 cells preincubated for 5 mins with thapsigargin followed by calcium chloride addition and measured after 5 mins by Fura-2AM dye based analysis; type: cell-based
[2] = molecular target: T1, ORAI1/STIM1 (Homo sapiens, UniProt Q13586+Q96D31); assay: Inhibition of human STIM1/Orai1 expressed in HEK293 cells assessed as reduction in Orai1 current by electrophysiological method; type: cell-based
T1 sequence (Q96D31 whole entry): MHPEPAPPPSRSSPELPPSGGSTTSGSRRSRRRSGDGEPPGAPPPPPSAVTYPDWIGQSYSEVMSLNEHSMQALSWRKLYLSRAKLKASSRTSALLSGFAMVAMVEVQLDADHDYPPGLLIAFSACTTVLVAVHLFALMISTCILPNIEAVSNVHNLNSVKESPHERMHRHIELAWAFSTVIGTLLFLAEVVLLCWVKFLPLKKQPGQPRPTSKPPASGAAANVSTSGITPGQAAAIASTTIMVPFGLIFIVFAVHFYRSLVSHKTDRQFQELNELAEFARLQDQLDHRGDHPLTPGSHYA
T1 sequence (Q13586 whole entry): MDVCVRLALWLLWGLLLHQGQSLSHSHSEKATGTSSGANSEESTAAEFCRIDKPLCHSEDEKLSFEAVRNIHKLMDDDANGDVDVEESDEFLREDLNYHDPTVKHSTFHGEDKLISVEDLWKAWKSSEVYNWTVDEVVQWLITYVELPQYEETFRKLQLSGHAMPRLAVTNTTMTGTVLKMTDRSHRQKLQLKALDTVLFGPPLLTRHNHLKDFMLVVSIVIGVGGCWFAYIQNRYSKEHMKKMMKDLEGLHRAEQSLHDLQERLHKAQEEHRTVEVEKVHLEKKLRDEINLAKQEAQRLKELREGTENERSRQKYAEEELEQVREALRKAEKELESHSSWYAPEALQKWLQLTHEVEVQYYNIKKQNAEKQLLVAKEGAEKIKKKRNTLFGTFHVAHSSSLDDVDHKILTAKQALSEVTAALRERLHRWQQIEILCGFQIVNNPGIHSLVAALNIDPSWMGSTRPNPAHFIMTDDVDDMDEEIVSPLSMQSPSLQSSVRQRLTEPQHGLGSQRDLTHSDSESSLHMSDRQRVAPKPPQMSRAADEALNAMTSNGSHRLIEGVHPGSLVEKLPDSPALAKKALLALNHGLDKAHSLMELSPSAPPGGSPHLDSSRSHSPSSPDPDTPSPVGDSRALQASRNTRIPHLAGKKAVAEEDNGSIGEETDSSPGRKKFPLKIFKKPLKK

[3] = molecular target: Stromal interaction molecule 1/Protein orai-3 (Homo sapiens, UniProt Q13586+Q9BRQ5); assay: Inhibition of human STIM1/Orai3 expressed in HEK293 cells assessed as reduction in Orai3 current by electrophysiological method; type: cell-based
[4] = AUClast in Lewis rat at 10 mg/kg, po measured upto 24 hrs by LC-MS/MS analysis; type: ADME, organism-based; design: route oral, dose 10 mg/kg, time <=24; details: in vivo
[5] = Inhibition of SOCE in human Jurkat E6.1 cells preincubated for 10 to 30 mins in presence of thapsigargin followed by calcium chloride addition and measured after 10 mins by FLIPR-tetra analysis; type: cell-based
[6] = AUClast in Lewis rat at 1 mg/kg, iv measured upto 24 hrs by LC-MS/MS analysis; type: ADME, organism-based; design: route intravenous, dose 1 mg/kg, time <=24; details: in vivo
[7] = Cmax in Lewis rat at 1 mg/kg, iv measured upto 24 hrs by LC-MS/MS analysis; type: ADME, organism-based; design: route intravenous, dose 1 mg/kg, time <=24; details: in vivo
[8] = Cmax in Lewis rat at 10 mg/kg, po measured upto 24 hrs by LC-MS/MS analysis; type: ADME, organism-based; design: route oral, dose 10 mg/kg, time <=24; details: in vivo
[9] = Tmax in Lewis rat at 1 mg/kg, iv measured upto 24 hrs by LC-MS/MS analysis; type: ADME, organism-based; details: in vivo
[10] = Tmax in Lewis rat at 10 mg/kg, po measured upto 24 hrs by LC-MS/MS analysis; type: ADME, organism-based; details: in vivo
[11] = Half life in Lewis rat at 1 mg/kg, iv measured upto 24 hrs by LC-MS/MS analysis; type: ADME, organism-based; details: in vivo
[12] = Half life in Lewis rat at 10 mg/kg, po measured upto 24 hrs by LC-MS/MS analysis; type: ADME, organism-based; details: in vivo
[13] = Clearance in Lewis rat at 1 mg/kg, iv measured upto 24 hrs by LC-MS/MS analysis; type: ADME, organism-based; details: in vivo
[14] = Volume of distribution at steady state in Lewis rat at 1 mg/kg, iv measured upto 24 hrs by LC-MS/MS analysis; type: ADME, organism-based; details: in vivo, read-out: Vdss
[15] = Oral bioavailability in Lewis rat at 10 mg/kg measured upto 24 hrs by LC-MS/MS analysis; type: ADME, organism-based; details: in vivo
[16] = molecular target: T1, ORAI1/STIM1; assay: Inhibition of Orai1/STIM1 (unknown origin) expressed in HEK293 cells assessed as reduction in Ca2+-release activated Ca2+ entry current by manual patch clamp based electrophysiological method; type: cell-based
[17] = Tmax in collagen-induced rheumatoid arthritis DBA/1J mouse model at 0.75 mg/kg, po administered once daily for 15 days; type: ADME, organism-based; details: in vivo, time 15 day
[18] = Tmax in collagen-induced rheumatoid arthritis DBA/1J mouse model at 0.75 mg/kg, po administered once daily for 15 days in presence of 3 mg/kg compound 36; type: ADME, organism-based; details: in vivo, time 15 day
[19] = AUClast in collagen-induced rheumatoid arthritis DBA/1J mouse model at 0.75 mg/kg, po administered once daily for 15 days; type: ADME, organism-based; design: route oral, time 15 day, dose 0.75 mg/kg; details: in vivo
[20] = AUClast in collagen-induced rheumatoid arthritis DBA/1J mouse model at 0.75 mg/kg, po administered once daily for 15 days in presence of 3 mg/kg compound 36; type: ADME, organism-based; design: route oral, dose 0.75 mg/kg, time 15 day; details: in vivo
[21] = in vivo; details: DBA/1J, mouse, po, 0.75 mg/kg
Description: Cmax in collagen-induced rheumatoid arthritis DBA/1J mouse model at 0.75 mg/kg, po administered once daily for 15 days

[22] = in vivo; details: DBA/1J, mouse, po, 0.75 mg/kg; remark: listed apart in the source
[23] = molecular target: T1, ORAI1/STIM1; assay: Inhibition of Orai1/STIM1 (unknown origin); type: protein-complex assay
[24] = molecular target: Protein orai-2/Stromal interaction molecule 1 (Homo sapiens, UniProt Q13586+Q96SN7); assay: Inhibition of Orai2/STIM1 (unknown origin); type: protein-complex assay
Protein orai-2/Stromal interaction molecule 1, sequence (Q96SN7 whole entry): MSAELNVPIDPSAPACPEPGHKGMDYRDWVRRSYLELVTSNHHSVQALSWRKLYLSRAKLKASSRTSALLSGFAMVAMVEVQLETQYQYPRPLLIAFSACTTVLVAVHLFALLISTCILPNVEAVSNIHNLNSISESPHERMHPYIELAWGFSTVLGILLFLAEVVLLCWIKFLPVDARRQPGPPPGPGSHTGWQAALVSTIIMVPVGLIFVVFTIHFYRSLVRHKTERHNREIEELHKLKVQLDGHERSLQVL
Protein orai-2/Stromal interaction molecule 1, sequence (Q13586 whole entry): as the sequence (Q13586 whole entry) above

pIC50 [1]: 6.31
Compound: O=C(Nc1ccc(-n2nc(C(F)(F)F)cc2C(F)(F)F)cc1)c1ccncc1F

pIC50 [2]: 5.40
pIC50 [3]: 5.40
Compound: O=C(Nc1ccn(Cc2ccc(O)cc2C(F)(F)F)n1)c1c(F)cccc1F

AUC(0-t) at 24 h [4]: 13 µM·h
Compound: Cc1ccc(C2=NOC(C)(C)C2=O)cc1-c1cnc(NC(=O)c2c(F)cccc2F)cn1

AUC(0-t) at 24 h [4]: 0.93 µM·h
Compound: O=C(Nc1ccc(-c2cc(C(F)(F)F)ccc2Cl)cc1)c1c(F)cccc1F

pIC50 [5]: 6.85
AUC(0-t) at 24 h [6]: 27 µM·h
AUC(0-t) at 24 h [4]: 75 µM·h
Cmax [7]: 4400 nM
Cmax [8]: 4100 nM
Tmax [9]: 4.8 min
Tmax [10]: 4.8 h
half-life [11]: 7 h
half-life [12]: 15.2 h
clearance [13]: 1.4 mL/min/kg
Vd [14]: 0.7 L/kg
bioavailability [15]: 28%
Compound: Cc1ccc(-c2nn(C)c(=O)o2)cc1-c1ccc(NC(=O)c2c(F)cccc2F)cc1

pIC50 [16]: 6.00
Compound: O=C(Nc1ccn(Cc2c(F)cccc2C(F)(F)F)n1)c1c(F)cccc1F

Tmax [17]: 1 h
Tmax [18]: 1 h
AUC(0-t) at 360 h [19]: 0.4 µM·h
AUC(0-t) at 360 h [20]: 0.6 µM·h
Cmax at 360 h [21]: 100 nM
Cmax at 360 h [22]: 200 nM
Compound: CN(Cc1cnc2nc(N)nc(N)c2n1)c1ccc(C(=O)N[C@@H](CCC(=O)O)C(=O)O)cc1 [METHOTREXATE]

pIC50 [23]: 6.92
pIC50 [24]: 6.05
Compound: Cc1cccc(F)c1C(=O)Nc1cnc(-c2cc3c(cc2Cl)OC(F)(F)O3)cn1 [ZEGOCRACTIN]
